# Experimental data: PMC7019173, “Stapled peptide targeting the CDK4/Cyclin D interface combined with Abemaciclib inhibits KRAS mutant lung cancer growth” (Theranostics, 2020)
# Where a SMILES comes first, the peptide text is derived from it. Bridges are numbered along the chain shown (N, C = ends). [ ]: non-standard residue; d: D form. S5 = C=CCCC[C@](C)(N)C(=O)O
# Legend:
# [1] = system: H358 orthotopic lung tumours; experiment: Antitumour efficacy in mice with orthotopic lung tumour; type: in vivo
# Method: Luciferase-modified human H358 NSCLC cells (H358-Luc cells) were suspended in medium with 10 mM EDTA and 5 mg/mL Matrigel (BD Biosciences) at 5.10^6 cells/50 μL. Six-week-old female NMRI nude mice (Janvier, Le Genest, Saint Isle, France) were anesthetized (isoflurane/air 4% for induction and 1.5% thereafter), and cells were inoculated in the lungs via the airways as previously described, [48]. Non-invasive in vivo bioluminescence imaging (IVIS Kinetic, Perkin-Elmer) was used 10 min after the intraperitoneal injection of 10 mg/mL D-Luciferin (Promega, Charbonnières, France) to monitor the quality of the implantation and to follow orthotopic growth, [48]. […] Five weeks after the inoculation of H358-Luc cells, when bioluminescent orthotopic tumours were detected, nude mice were randomly divided into 6 groups. […] To determine proliferative index, total and Ki67 positive tumour epithelial cells were scored on two to eight fields per mouse in three or four mice per group, and reported as percentage of Ki67 positive cells. […] Total and p-RB positive tumour epithelial cells were scored on two to twenty-nine fields per mouse in three or four mice per group, and reported as percentage of p-RB positive cells in each field and each treatment group.
# [2] = system: A549 cells; experiment: Flow cytometry cell cycle analysis; type: cell-based, human; conditions: 24 h, Abemaciclib 0.5 and 5 µM, Ctrl stapled peptide 10 µM, P2short 1 or 10 µM
# Method: Cells were trypsinized and fixed in 70% ice cold ethanol, washed in PBS and resuspended in PBS-1% BSA-50 mM citrate with 25 µg/mL RNase A for 15 min at 37 °C, supplemented with 25 µg/mL of propidium iodide for 30 min at room temperature. For each condition 20000 events were analysed by Gallios (Beckman Coulter) and data analysis was performed using FlowJo Software.
# [3] = system: A549 cells; experiment: cells; type: cell-based, human; conditions: Homo sapiens, A549; 48 hours, crystal violet, at least two independent experiments (n=4/experiment) ± SD, Grafit; read-out: IC50 A549 cell proliferation
# Method: Non-small cell lung cancer A549, H358 and PC9 cell lines used in this study. Cell culture media, serum and antibiotics were purchased from Life Technologies. All cell lines were cultured in RPMI + Glutamax supplemented with 10% FCS, 100 units/mL penicillin (G sodium salt) and 100 µg/mL streptomycin at 37 °C in an atmosphere containing 5% CO2. […] Stock solutions of drugs were prepared in DMSO and freshly diluted in PBS to the desired concentration prior to use, then added onto unsynchronized cells cultured to subconfluency (60-70%), which were then further incubated for 24, 48 or 72 h. Cell proliferation was determined by crystal violet assay following treatment with drugs. Cells were washed with PBS, fixed with 3.7% formaldehyde for 10 min and then incubated with 0.1% crystal violet dye for 30 min. After rinsing, crystals were dissolved in 10% acetic acid and viability was determined by measuring absorbance at 595 nm.
# [4] = Circular dichroism, determination of alpha helical content; type: physicochemical
# Method: CD experiments were carried out using a Jasco J815 spectropolarimeter. Spectra were recorded with 100 μM of peptides dissolved in phosphate buffer 50 mM, pH 7, using a 1 mm pathlength CD cuvette at 20 °C, over a wavelength range of 190-260 nm. Continuous scanning mode was used, with a response of 1.0 s with 0.1 nm steps and a bandwidth of 2 nm. The signal to noise ratio was improved by acquiring each spectrum over an average of two scans. Baseline was corrected by subtracting the background from the sample spectrum.
# Alpha helical content was determined using the following equation: % Helix = ([θ])obs * 100)/(-39500 * (1-2.57/n), where ([θ])obs is the mean residue ellipticity at 222 nm and n the number of peptide bonds.
# [5] = circular dichroism; conditions: 50 mM phosphate buffer; pH 7; 20 °C; 100 uM
# [6] = target: T1, GST-cyclin D1 (Homo sapiens, UniProt P24385); experiment: Fluorescence titration of TP2-Rho-labelled peptides with GST-cyclin D1; type: binding; conditions: 200 nM TP2-Rho labelled peptide titrated with GST-cyclin D1, PBS, 30 °C, average of n = 3 to 5 ± SD
# T1 construct: made in house; host or cells: E. coli
# Method: (§1) TP2-Rho-labelled peptides: peptides were labelled on a unique cysteine residue with a five-fold molar excess of TP2-Rho-maleimide overnight, and then purified from free dye on NAP-5 columns (GE Healthcare), as described previously.
# Recombinant GST-CDK4 and GST-cyclin D1 were expressed in E. coli by IPTG induction and purified by FPLC chromatography as described previously.
# (§2) Fluorescence titration assays were performed in 96-well plates in a thermostated chamber (Clariostar spectrofluorimeter, BMG) at 30 °C in 200 μL phosphate buffer saline using 200 nM fluorescently-labelled peptides or proteins. The fluorescence emission intensity of TP2-Rho-labelled peptides was recorded at 614 nm following excitation at 510 nm. The fluorescence emission intensity of mant-ATP was measured at […]. Data analysis was performed using the GraFit Software (Erathicus Ltd) and curve fitting was performed using a quadratic equation, as described previously. Experiments were performed in triplicate, and Kd values represent the average calculated for n = 3 to 5 experiments, together with standard deviation.
# [7] = target: C4D peptide derived from the alpha 5 helix of cyclin D1 (Homo sapiens, UniProt P24385); experiment: Fluorescence titration of TP2-Rho-labelled C4D peptide with CDK4 C helix-derived peptides; type: binding; conditions: 200 nM TP2-Rho labelled C4D peptide, PBS, 30 °C, average of n = 3 to 5 ± SD
# Method: as §1, §2
# [8] = Solubility of stapled peptides; type: physicochemical
# Sequence of C4D peptide derived from the alpha 5 helix of cyclin D1 (P24385 whole entry): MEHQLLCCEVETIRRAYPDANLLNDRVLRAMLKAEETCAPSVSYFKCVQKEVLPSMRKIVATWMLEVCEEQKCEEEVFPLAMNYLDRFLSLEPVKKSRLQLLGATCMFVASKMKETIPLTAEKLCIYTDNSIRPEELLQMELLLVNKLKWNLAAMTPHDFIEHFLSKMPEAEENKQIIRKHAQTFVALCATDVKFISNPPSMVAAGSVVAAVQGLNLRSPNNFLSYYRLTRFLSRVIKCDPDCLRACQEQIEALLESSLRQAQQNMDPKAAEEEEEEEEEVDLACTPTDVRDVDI
# T1 sequence (P24385 whole entry): as above
compound,measurement,setting,value
CCN1CCN(Cc2ccc(Nc3ncc(F)c(-c4cc(F)c5nc(C)n(C(C)C)c5c4)n3)nc2)CC1 [Abemaciclib],"effect on H358 orthotopic tumour growth, single agent","[1]; bioluminescence, 3 weeks, Abemaciclib 10 mg/kg daily oral, P2shortA 0.45 mg/kg intrapulmonary 2 times a week, n=10",slightly reduced tumour growth
same,"Ki67 or pRb levels in tumours, single agent","[1]; intrapulmonary P2shortA or Abemaciclib alone, immunohistochemistry",did not reduce Ki67 or pRb levels
same,effect on the cell cycle (proportion of cells in G1),[2],significantly increased the proportion of cells in G1
same,IC50,[3],2720 ± 2210 nM
CC[C@H](C)[C@H](NC(=O)[C@@H]1CCCN1C(=O)[C@@H](N)CS)C(=O)N[C@@H](CO)C(=O)N[C@H](C(=O)N[C@H](C(=O)N[C@@H](CCCNC(=N)N)C(=O)N[C@@H](CCC(=O)O)C(=O)N[C@H](C(=O)N[C@@H](C)C(=O)N[C@@H](CC(C)C)C(=O)N[C@@H](CC(C)C)C(=O)N[C@@H](CCCNC(=N)N)C(=O)N[C@@H](CCCNC(=N)N)C(=O)N[C@@H](CC(C)C)C(=O)N[C@@H](CCC(=O)O)C(=O)N[C@@H](C)C(=O)N[C@@H](Cc1ccccc1)C(=O)N[C@@H](CCC(=O)O)C(N)=O)C(C)C)C(C)C)[C@@H](C)O [CDK4 C peptide] (H-CPISTVREVALLRRLEAFE-NH2),% helix (alpha helical content),"[4]; CD, 100 μM peptide in phosphate buffer 50 mM, pH 7, 20 °C, from mean residue ellipticity at 222 nm",7%
same,helicity upon addition of 25% TFE,"[4]; CD, phosphate buffer with 25% TFE",46%
same,conformation in solution (CD),[4]; phosphate buffer,disordered
same,helicity,[5],7%
same,Kd,[6],43 ± 24 nM
same,Kd,[7],83 ± 45 nM
CC[C@H](C)[C@H](NC(=O)[C@@H]1CCCN1C(=O)[C@H](CC(C)C)NC(=O)CNC(C)=O)C(=O)N[C@@H](CO)C(=O)N[C@H](C(=O)N[C@H](C(=O)N[C@@H](CCCNC(=N)N)C(=O)N[C@@H](CCC(=O)O)C(=O)N[C@H](C(=O)N[C@@H](C)C(=O)N[C@@H](CC(C)C)C(=O)N[C@@]1(C)CCCC=CCCC[C@@](C)(C(=O)N[C@@H](C)C(=O)N[C@@H](Cc2ccccc2)C(=O)N[C@@H](CCC(=O)O)C(N)=O)NC(=O)[C@H](CC(C)C)NC(=O)[C@H](CCCNC(=N)N)NC(=O)[C@H](CCCNC(=N)N)NC1=O)C(C)C)C(C)C)[C@@H](C)O [P3] (Ac-GLPISTVREVAL[S5]RRL[S5]AFE-NH2; staple 13-17),solubility,[8],poorly soluble
